One assay concerns male Wistar rats. In words: Spontaneous home cage activity and body temperature measured by radiotelemetry. The class given is in vivo, rat. Conditions: oral administration, home cage activity by telemetry. From the text: In Vivo Assay: Spontaneous Home Cage Activity and Body Temperature Measured by Radiotelemetry in Laboratory Rats:
The objective of the present test is to record the circadian behavioral activity of rats after oral administration of a compound according to general formula (I) of the invention.
Decreased home cage activity measured by telemetry in male Wistar rats was considered as an indication for sleep-inducing potential of a restricted number of highly optimized 1,2,3,4-tetrahydroisoquinoline derivatives.
Psychotropic drugs such as antidepressants, antipsychotics, sleep inducers or psychostimulants are well known to reduce or enhance home cage activity and body temperature following oral administration to laboratory animals. Thermoregulation is a complex process that contributes to homeostasis by coordinating metabolism, energy balance and behaviour. Body temperature changes with circadian behavioural activity and increases when locomotion increases. These two parameters were measured by telemetry in conscious freely moving Wistar rats. Anaesthetized animals were implanted, under aseptic conditions, with a body temperature/activity telemetric device into the peritoneal cavity. More than two weeks after the implantation of the telemetry system, data were collected at 5 minutes intervals during 96 hours. Hourly means were calculated for each rat. The first 48 h were used as an internal control trace and drug effects were compared to vehicle placebo. This method is validated pharmacologically by measuring amplitude and time course of both hypoactivity and hypothermia induced by GABA-A receptor modulators such as zolpidem.

The target of the next assay is T1, CYP3A4 (Homo sapiens, UniProt P08684).
T1 construct: performed using human liver microsomes (pool of 10 individuals); from tissue; host or cells: human liver microsomes, pool of 10 individuals
T1 sequence (P08684 whole entry): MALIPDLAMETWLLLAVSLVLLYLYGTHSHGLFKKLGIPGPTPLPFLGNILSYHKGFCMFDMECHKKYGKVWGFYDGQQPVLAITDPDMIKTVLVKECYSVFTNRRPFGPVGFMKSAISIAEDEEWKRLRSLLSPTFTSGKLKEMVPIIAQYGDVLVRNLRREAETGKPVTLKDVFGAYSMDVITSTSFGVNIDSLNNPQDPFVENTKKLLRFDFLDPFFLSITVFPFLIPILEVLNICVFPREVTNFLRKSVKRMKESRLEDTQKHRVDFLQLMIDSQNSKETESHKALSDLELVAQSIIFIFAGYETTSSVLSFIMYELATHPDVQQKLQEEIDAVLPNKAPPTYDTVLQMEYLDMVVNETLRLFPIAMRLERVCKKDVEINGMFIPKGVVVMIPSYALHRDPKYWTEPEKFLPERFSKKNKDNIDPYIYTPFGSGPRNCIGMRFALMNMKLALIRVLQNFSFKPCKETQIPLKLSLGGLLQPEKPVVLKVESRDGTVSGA
As to the kind of experiment: Inhibitory potency against CYPs in human liver microsomes. The class given is in vitro ADME. Conditions: human liver microsomes 0.25 mg/ml, midazolam (5 μM) 1'-hydroxylation, 5 min. As to the method:
Measurements of the Inhibitory Potency Against Different CYPs:
The CYP inhibition studies are performed using human liver microsomes (pool of 10 individuals), literature-established CYP isoform-selective substrates and quantification by either LC-MS/MS (for CYP3A4 and CYP2C9) or conventional HPLC with fluorimetric detection (for CYP2D6). The specific probes were midazolam 1′-hydroxylation for CYP3A4, dextromethorphan 3-hydroxylation for CYP2D6 and diclofenac 4′-hydroxylation for CYP2C9. […] Controls (sulfaphenazole for CYP2C9, fluoxetine for CYP2D6, and nicardipine for CYP3A4) were run in parallel in each plate.

With `CNC(=O)C(c1ccccc1)N1CCc2cc(OC)c(OC)cc2C1CCc1ccc(C(F)(F)F)cc1` (mixture of isomers) [Example 1, 2-{6,7-dimethoxy-1-[2-(4-trifluoromethyl-phenyl)-ethyl]-3,4-dihydro-1H-isoquinolin-2-yl}-N-methyl-2-phenyl-acetamide], the p.o activity result with male Wistar rats is “yes”.

For `CNC(=O)[C@@H](c1ccccc1)N1CCc2cc(OC)c(OC)cc2[C@@H]1CCc1ccc(C(F)(F)F)cc1` [Example 2, (2R)-2-{(1S)-6,7-dimethoxy-1-[2-(4-trifluoromethyl-phenyl)-ethyl]-3,4-dihydro-1H-isoquinolin-2-yl}-N-methyl-2-phenyl-acetamide], the p.o activity entry in the assay with male Wistar rats is listed as “yes”.

Regarding `CNC(=O)C(c1ccccc1)N1CCc2cc(OC)c(OC)cc2C1CCc1ccc(C(F)(F)F)nc1` (stereo not drawn) [Example 3, 2-{6,7-dimethoxy-1-[2-(6-trifluoromethyl-pyridin-3-yl)-ethyl]-3,4-dihydro-1H-isoquinolin-2-yl}-N-methyl-2-phenyl-acetamide], on CYP3A4, the IC50 turned out to be 18 µM. Further, the p.o activity result in the assay on male Wistar rats is listed as “yes”.

For the molecule `CNC(=O)[C@@H](c1ccccc1)N1CCc2cc(OC)c(OC)cc2[C@@H]1CCc1ccc(C(F)(F)F)nc1` [Example 4, (2R)-2-{(1S)-6,7-dimethoxy-1-[2-(6-trifluoromethyl-pyridin-3-yl)-ethyl]-3,4-dihydro-1H-isoquinolin-2-yl}-N-methyl-2-phenyl-acetamide], the half-maximal inhibitory concentration (IC50) at CYP3A4 is 50 µM. In addition, the p.o activity result in the assay with male Wistar rats is recorded as “yes”.

The values are drawn from patent US7763638B2, “Substituted 1,2,3,4-tetrahydroisoquinoline derivatives” (Actelion Pharmaceuticals Ltd., priority 2004, dated 2010).
